Reference: publication PMC3697074 (Journal of medicinal chemistry, 2011)

These compounds were tested on P. falciparum K1 (CQ-resistant strain) (assay: Antimalarial activity, chloroquine-resistant strain K1).
Format: cell-based, Plasmodium falciparum

SMILES	antimalarial activity against strain K1 (in words)
COc1ccc(F)cc1CNCCCNc1ccnc2cc(Oc3ccccc3)ccc12 [3{1,1,4}]	enhanced potency in strain K1
COc1ccc(F)cc1CNCCCNc1ccnc2cc(Oc3ccc(F)cc3)ccc12 [3{1,5,4}]	enhanced potency in strain K1
COc1cccc(Oc2ccc3c(NCCCNCc4cc(F)ccc4OC)ccnc3c2)c1 [3{1,3,4}]	enhanced potency in strain K1
